Data on seven compounds can be found in US12295936B2, “Immunomodulating urea azalides” (Zoetis Services LLC, priority 2020, dated 2025).

Structures are written as SMILES. Read-outs that look alike come from different tables or passages of the source. A value given as a limit tells only on which side of the number the result lay.

For one experiment, the system named is IL-6. The experiment is described as follows: LPS-stimulated whole bovine blood assay, MSD cytokine detection. It counts as cell-based. To be noted: read-out: IL-6 (IC50 μM). The text has this:
In order to correlate RNA sequencing data to cytokine changes the whole blood assay was utilized. […] The enhancement result represents an overall stimulation of cytokine levels due to cellular stress or potential toxicity with increasing concentrations of the compound, representing a typical bell shape response curve for immunomodulatory activity.

Another experiment concerns P. multocida 46572. The experiment is described as follows: In vivo mouse lung infection challenge model (murine efficacy). To be noted: 20 mg/kg subcutaneous, P. multocida challenge; harmonized against the comparative vehicle survival rate. Also noted: species or system CD-1 female mice. The procedure: The challenge organism was P. multocida 46572. Target challenge concentration was 5×10^2 CFU/mouse. Isolated colonies from overnight growth (37° C. with 5% CO2) on trypticase soy agar (TSA II) blood plates were transferred to room temperature Brain Heart Infusion Broth (BHIB). The broth culture was incubated 3.5-4 hours to approximately mid-log phase of growth, as measured by forward light scatter at 600 nm (OD600, 0.200). The culture was centrifuged to collect the bacterial pellet. The pellet was re-suspended in BHIB and adjusted to provide an approximate concentration of 2.7 log^10 colony forming units (CFU) in 0.04 mL at the highest concentration. The challenge inoculum concentration was confirmed by serial dilutions of the inoculum for CFU enumeration. On Day −5, CD-1 female mice were received. Mice were given standard rodent diet and water ad libitum. On Day 0, bacterial inoculum (0.04 mL) was administered to each mouse (n=36) intranasally. Compounds of the invention were dosed at 20 mg/kg (0.1 mL) in a buffered (˜pH 5.4) propylene glycol, monothioglycerol and water solution by subcutaneous injection. Animals were observed from Days 1-10. The study was terminated on Day 10. In addition, some treatment groups were sampled at 6, 24, and 48 hours post bacterial challenge for RNA sequence analysis of lung tissue.
The murine efficacy model (P. multocida challenge) was optimized, and the treatment group size was powered to be able to observe statistically significant improvement of survival to expected ranges for immunomodulatory compounds. The experimental design was a randomized complete block design. Mice were individually identified and treatment groups comingled within a cage, with every treatment group equally represented across cages. Mortality was the primary variable. Mortality data was analyzed using a generalized mixed model with fixed effect of treatment and random effect of block. Survival time was also analyzed using the SAS PHREG (survival analysis) procedure to examine whether there were significant differences between treatment groups and the control group. Numerous compounds of the invention and M9 (positive control) were tested in this model at a dose of 20 mg/kg. Typical percent survival for no treatment control is in the range of 0-20% based on study to study variation in challenge inoculum and rate of infection. […] Mouse survival for M9 was about 90-100%, further supporting its antibacterial properties against the bacterial strain (Table 3). Survival values presented are harmonized against the comparative vehicle survival rate.

The next experiment deals with IL-1β. The experiment is described as follows: LPS-stimulated whole bovine blood assay, MSD cytokine detection. The experiment is classed as cell-based. To be noted: overstimulation of IL-1β, LPS-stimulated bovine whole blood.
The next experiment relates to TNF-α. Described as above. It counts as cell-based. To be noted: Bos taurus, read-out: TNF-α (IC50 μM).
Experiment [1] deals with BRD pathogens, M. haemolytica and P. multocida. Description: MIC screening panel of BRD pathogens (antibacterial / non-antibacterial). Particulars: read-out: antibacterial / non-antibacterial (MIC for the BRD pathogens).
The mark [2] stands for this setting: LPS-stimulated bovine whole blood.
The mark [3] stands for this setting: Bos taurus, LPS-stimulated bovine whole blood.

Regarding `CC[C@H]1OC(=O)[C@H](C)[C@@H](O[C@H]2C[C@@](C)(OC)[C@@H](O)[C@H](C)O2)[C@H](C)[C@@H](O[C@@H]2O[C@H](C)C[C@H](N(C)C(=O)N(C)c3ccc(C(F)(F)F)cc3)[C@H]2O)[C@](C)(O)C[C@@H](C)CN[C@H](C)[C@@H](O)[C@]1(C)O` [Example B-2, 1-((2S,3R,4S,6R)-2-(((2R,3S,4R,5R,8R,10R,11R,12S,13S,4R)-2-ethyl-3,4,10-trihydroxy-13-(((2R,4R,5S,6S)-5-hydroxy-4-methoxy-4,6-dimethyltetrahydro-2H-pyran-2-yl)oxy)-3,5,8,10,12,14-hexamethyl-15-oxo-1-oxa-6-azacyclopentadecan-11-yl)oxy)-3-hydroxy-6-methyltetrahydro-2H-pyran-4-yl)-1,3-dimethyl-3-(4-(trifluoromethyl)phenyl)urea], the IC50 in the experiment on IL-6 (setting [2]) is 52 µM. Moreover, the “Mouse Murine Percent Survival” value in the experiment with P. multocida 46572 worked out at 28%. Moreover, in the experiment with IL-1β, the “IL-1β OS of LPS” value was 40 µM.
With `CC[C@H]1OC(=O)[C@H](C)[C@@H](O[C@H]2C[C@@](C)(OC)[C@@H](O)[C@H](C)O2)[C@H](C)[C@@H](O[C@@H]2O[C@H](C)C[C@H](N(C)C(=O)N(C)c3ccc(C(F)(F)F)cc3)[C@H]2O)[C@](C)(O)C[C@@H](C)CN(C)[C@H](C)[C@@H](O)[C@]1(C)O` [Example B-6, 1-((2S,3R,4S,6R)-2-(((2R,3S,4R,5R,8R,10R,11R,12S,13S,14R)-2-ethyl-3,4,10-trihydroxy-13-(((2R,4R,5S,6S)-5-hydroxy-4-methoxy-4,6-dimethyltetrahydro-2H-pyran-2-yl)oxy)-3,5,6,8,10,12,14-heptamethyl-15-oxo-1-oxa-6-azacyclopentadecan-11-yl)oxy)-3-hydroxy-6-methyltetrahydro-2H-pyran-4-yl)-1,3-dimethyl-3-(4-(trifluoromethyl)phenyl)urea], the IC50 with TNF-α (setting [2]) was found to be 12 µM; with IL-6 (setting [3]), 41 µM. In addition, the “Mouse Murine Percent Survival” value in the experiment with P. multocida 46572 is given as 1%. In addition, the “IL-1β OS of LPS” value with IL-1β amounted to 40 µM.
Take `CC[C@H]1OC(=O)[C@H](C)[C@@H](O[C@H]2C[C@@](C)(OC)[C@@](C)(O)[C@H](C)O2)[C@H](C)[C@@H](O[C@@H]2O[C@H](C)C[C@H](N(C)C(=O)N(C)c3ccc(C(F)(F)F)cc3)[C@H]2O)[C@](C)(O)C[C@@H](C)CN[C@H](C)[C@@H](O)[C@]1(C)O` [Example B-13, 1-((2S,3R,4S,6R)-2-(((2R,3S,4R,5R,8R,10R,11R,12S,13S,14R)-2-ethyl-3,4,10-trihydroxy-13-(((2R,4R,5S,6S)-5-hydroxy-4-methoxy-4,5,6-trimethyltetrahydro-2H-pyran-2-yl)oxy)-3,5,8,10,12,14-hexamethyl-15-oxo-1-oxa-6-azacyclopentadecan-11-yl)oxy)-3-hydroxy-6-methyltetrahydro-2H-pyran-4-yl)-1,3-dimethyl-3-(4-(trifluoromethyl)phenyl)urea]: the IC50 is 14 µM with TNF-α (setting [2]) and 51 µM with IL-6 (setting [3]). Further, in the experiment on P. multocida 46572, the “Mouse Murine Percent Survival” value was 48%. For the same compound, the “IL-1β OS of LPS” value with IL-1β came out at 16 µM. The MIC in experiment [1] is > 64 µg/mL.
Consider `CCCNC[C@]1(O)[C@H](C)O[C@@H](O[C@H]2[C@H](C)[C@@H](O[C@@H]3O[C@H](C)C[C@H](N(C)C(=O)Nc4cccnc4)[C@H]3O)[C@](C)(O)C[C@@H](C)CN[C@H](C)[C@@H](O)[C@](C)(O)[C@@H](CC)OC(=O)[C@@H]2C)C[C@@]1(C)OC` [Example H-72, 1-((2S,3R,4S,6R)-2-(((2R,3S,4R,5R,8R,10R,11R,12S,13S,14R)-2-ethyl-3,4,10-trihydroxy-13-(((2R,4R,5S,6S)-5-hydroxy-4-methoxy-4,6-dimethyl-5-((propylamino)methyl)tetrahydro-2H-pyran-2-yl)oxy)-3,5,8,10,12,14-hexamethyl-15-oxo-1-oxa-6-azacyclopentadecan-11-yl)oxy)-3-hydroxy-6-methyltetrahydro-2H-pyran-4-yl)-1-methyl-3-(pyridin-3-yl)urea], for which the IC50 in the experiment with TNF-α (setting [2]) and with IL-6 (setting [3]) was > 500 µM each time. The “Mouse Murine Percent Survival” value in the experiment on P. multocida 46572 is 4%. Moreover, the “IL-1β OS of LPS” value in the experiment with IL-1β is >500 µM.
Take `CCCNC[C@]1(O)[C@H](C)O[C@@H](O[C@H]2[C@H](C)[C@@H](O[C@@H]3O[C@H](C)C[C@H](N(C)C(=O)Nc4cnn(C)c4)[C@H]3O)[C@](C)(O)C[C@@H](C)CN[C@H](C)[C@@H](O)[C@](C)(O)[C@@H](CC)OC(=O)[C@@H]2C)C[C@@]1(C)OC` [Example H-74, 1-((2S,3R,4S,6R)-2-(((2R,3S,4R,5R,8R,10R,11R,12S,13S,14R)-2-ethyl-3,4,10-trihydroxy-13-(((2R,4R,5S,6S)-5-hydroxy-4-methoxy-4,6-dimethyl-5-((propylamino)methyl)tetrahydro-2H-pyran-2-yl)oxy)-3,5,8,10,12,14-hexamethyl-15-oxo-1-oxa-6-azacyclopentadecan-11-yl)oxy)-3-hydroxy-6-methyltetrahydro-2H-pyran-4-yl)-1-methyl-3-(1-methyl-1H-pyrazol-4-yl)urea]: the IC50 in the experiment on TNF-α is ~600 µM; in the experiment on IL-6 (Bos taurus), > 500 µM. Besides, in the experiment with P. multocida 46572, the “Mouse Murine Percent Survival” value was determined as 11%. The “IL-1β OS of LPS” value in the experiment with IL-1β was >500 µM.
On to `CC[C@H]1OC(=O)[C@H](C)[C@@H](O[C@H]2C[C@@](C)(OC)[C@](O)(CN3CCN(C)CC3)[C@H](C)O2)[C@H](C)[C@@H](O[C@@H]2O[C@H](C)C[C@H](N(C)C(=O)NC(C)(C)C)[C@H]2O)[C@](C)(O)C[C@@H](C)CN[C@H](C)[C@@H](O)[C@]1(C)O` [Example J-3, 3-(tert-butyl)-1-((2S,3R,4S,6R)-2-(((2R,3S,4R,5R,8R,10R,11R,12S,13S,14R)-2-ethyl-3,4,10-trihydroxy-13-(((2R,4R,5S,6S)-5-hydroxy-4-methoxy-4,6-dimethyl-5-((4-methylpiperazin-1-yl)methyl)tetrahydro-2H-pyran-2-yl)oxy)-3,5,8,10,12,14-hexamethyl-15-oxo-1-oxa-6-azacyclopentadecan-11-yl)oxy)-3-hydroxy-6-methyltetrahydro-2H-pyran-4-yl)-1-methylurea], for which the IC50 was determined as 200 µM in the experiment on TNF-α (setting [2]) and 225 µM with IL-6 (setting [3]). The “Mouse Murine Percent Survival” value in the experiment with P. multocida 46572 came out at 25%. In addition, the “IL-1β OS of LPS” value in the experiment with IL-1β worked out at 200 µM.
On to `CC[C@H]1OC(=O)[C@H](C)[C@@H](O[C@H]2C[C@@](C)(OC)[C@](O)(CN3CCN(C)CC3)[C@H](C)O2)[C@H](C)[C@@H](O[C@@H]2O[C@H](C)C[C@H](N(C)C(=O)Nc3ccccc3)[C@H]2O)[C@](C)(O)C[C@@H](C)CN[C@H](C)[C@@H](O)[C@]1(C)O` [Example J-7, 1-((2S,3R,4S,6R)-2-(((2R,3S,4R,5R,8R,10R,11R,12S,13S,14R)-2-ethyl-3,4,10-trihydroxy-13-(((2R,4R,5S,6S)-5-hydroxy-4-methoxy-4,6-dimethyl-5-((4-methylpiperazin-1-yl)methyl)tetrahydro-2H-pyran-2-yl)oxy)-3,5,8,10,12,14-hexamethyl-15-oxo-1-oxa-6-azacyclopentadecan-11-yl)oxy)-3-hydroxy-6-methyltetrahydro-2H-pyran-4-yl)-1-methyl-3-phenylurea], for which the IC50 was 200 µM in the experiment on TNF-α (setting [2]) and > 500 µM with IL-6 (setting [3]). Besides, in the experiment with P. multocida 46572, the “Mouse Murine Percent Survival” value was 39%. In addition, the “IL-1β OS of LPS” value in the experiment with IL-1β was determined as 200 µM.
